Details of series [1]: method as in doi:10.1039/jr9480002240. The conditions noted are these: first protonation on the ring nitrogen; cited from earlier work.
In series [2] the target is T1, human topo IIα (Homo sapiens, UniProt P11388).
T1 construct: purchased Inspiralis (Norwich, U.K.)
The series is described as follows: HTS relaxation assay of human topo IIα. Type of series: biochemical.

Another series can be described thus: Solubility observations. Type of series: physicochemical. The note with it: cell growth medium.
The next series has as its target bacterial DNA gyrase. Details: method as in earlier work. The conditions noted are these: previous virtual screening campaign; cited from earlier work.
For a further series, the system named is MCF-7 cells. The series is described as follows: MTS cytotoxicity assay, MCF-7. The series is classed as cell-based, human. The conditions noted are these: 24 h, one concentration (200, 100 or 50 μM by solubility), vs untreated control. An excerpt: (§1) We have determined the cytotoxicity of the compounds using the human breast cancer MCF-7 and human hepatocellular carcinoma HepG2 cancer cell lines by standard 3-(4,5-dimethylthiazol-2-yl)-5-(3-carboxymethoxyphenyl)-2-(4-sulfophenyl)-2H-tetrazolium (MTS) assay.[65] The two selected human cancer cell lines are representative and well-established systems for the cell-based evaluation of potential cancer drugs. Etoposide was again used as a positive control (PC). We performed initial screening of compounds 1–14 at one concentration.
(§2) Cytotoxic activity of studied compounds was determined in two human cancer cell lines: hepatocellular carcinoma (HepG2) and breast cancer (MCF-7) cells. Both cell lines were obtained from ATCC. […] After the exposure of cells to the tested compounds, their viability was determined using the MTS assay.
(§3) The cells were seeded at densities of 8000 and 7000 cells/well for HepG2 and MCF-7 cells, respectively, in 200 μL of complete growth medium onto 96-well microtiter plates (Nunc, Thermo Fisher Scientific, Waltham, MA) and were left overnight at 37 °C to attach. […] After 3 h incubation (37 °C, 5% CO2), the absorbance was determined at 490 nm using a spectrofluorometer Synergy MX (BioTek, Winooski, VT). […] Cell viability was calculated by comparing the optical density (OD) of the wells with exposed cells with the wells of solvent control cells, and the results are shown as percentage of cell viability ± SD. […] The EC50 values were determined utilizing nonlinear regression analysis available in GraphPad Prism 7.0 software. Statistically significant difference between control and treated groups was determined by one-way analysis of variance combined with Dunnett’s multiple comparison test.
On the technique in general: Tetrazolium assays rely on reduction of a dye to a coloured formazan, in cell work by metabolically active cells.

The subject of the next series is HepG2 cells. The series is described as follows: MTS cytotoxicity assay, HepG2. The conditions noted are these: 24 h, one concentration (200, 100 or 50 μM by solubility), vs untreated control. The series is classed as cell-based, human.
From the text: as §1, §2, §3

In series [3] the target is T1, human topo IIα. In words: Human topo IIα-mediated cleavage assay. Type of series: biochemical. The conditions noted are these: for linear DNA formation in cleavage assay (in words): four concentrations. An excerpt: To determine whether compounds act as catalytic inhibitors, a cleavage assay was next performed for compounds 1 and 9.
We performed the assay in collaboration with Inspiralis (Norwich, U.K.).

Series [4] deals with T1, human topo IIα. The series is described as follows: Human topo IIα-mediated kDNA decatenation assay. The series is classed as biochemical. The procedure: (§4) We made use of the human topo II decatenation assay kit from Inspiralis (Norwich, U.K.) to assess the ability of selected compounds to impede DNA decatenation.[89],[90] It was performed for topo IIα and topo IIβ isoforms using the protocol as described previously.[35]

In series [5] the target is T1, human topo IIα. The series is described as follows: ATPase activity (ATP hydrolysis) assay, pyruvate kinase/lactate dehydrogenase coupled. The series is classed as biochemical.
For the next series, the target named is T2, human topo IIβ (Homo sapiens, UniProt Q02880).
T2 construct: purchased Inspiralis (Norwich, U.K.)
T2 sequence (Q02880 whole entry): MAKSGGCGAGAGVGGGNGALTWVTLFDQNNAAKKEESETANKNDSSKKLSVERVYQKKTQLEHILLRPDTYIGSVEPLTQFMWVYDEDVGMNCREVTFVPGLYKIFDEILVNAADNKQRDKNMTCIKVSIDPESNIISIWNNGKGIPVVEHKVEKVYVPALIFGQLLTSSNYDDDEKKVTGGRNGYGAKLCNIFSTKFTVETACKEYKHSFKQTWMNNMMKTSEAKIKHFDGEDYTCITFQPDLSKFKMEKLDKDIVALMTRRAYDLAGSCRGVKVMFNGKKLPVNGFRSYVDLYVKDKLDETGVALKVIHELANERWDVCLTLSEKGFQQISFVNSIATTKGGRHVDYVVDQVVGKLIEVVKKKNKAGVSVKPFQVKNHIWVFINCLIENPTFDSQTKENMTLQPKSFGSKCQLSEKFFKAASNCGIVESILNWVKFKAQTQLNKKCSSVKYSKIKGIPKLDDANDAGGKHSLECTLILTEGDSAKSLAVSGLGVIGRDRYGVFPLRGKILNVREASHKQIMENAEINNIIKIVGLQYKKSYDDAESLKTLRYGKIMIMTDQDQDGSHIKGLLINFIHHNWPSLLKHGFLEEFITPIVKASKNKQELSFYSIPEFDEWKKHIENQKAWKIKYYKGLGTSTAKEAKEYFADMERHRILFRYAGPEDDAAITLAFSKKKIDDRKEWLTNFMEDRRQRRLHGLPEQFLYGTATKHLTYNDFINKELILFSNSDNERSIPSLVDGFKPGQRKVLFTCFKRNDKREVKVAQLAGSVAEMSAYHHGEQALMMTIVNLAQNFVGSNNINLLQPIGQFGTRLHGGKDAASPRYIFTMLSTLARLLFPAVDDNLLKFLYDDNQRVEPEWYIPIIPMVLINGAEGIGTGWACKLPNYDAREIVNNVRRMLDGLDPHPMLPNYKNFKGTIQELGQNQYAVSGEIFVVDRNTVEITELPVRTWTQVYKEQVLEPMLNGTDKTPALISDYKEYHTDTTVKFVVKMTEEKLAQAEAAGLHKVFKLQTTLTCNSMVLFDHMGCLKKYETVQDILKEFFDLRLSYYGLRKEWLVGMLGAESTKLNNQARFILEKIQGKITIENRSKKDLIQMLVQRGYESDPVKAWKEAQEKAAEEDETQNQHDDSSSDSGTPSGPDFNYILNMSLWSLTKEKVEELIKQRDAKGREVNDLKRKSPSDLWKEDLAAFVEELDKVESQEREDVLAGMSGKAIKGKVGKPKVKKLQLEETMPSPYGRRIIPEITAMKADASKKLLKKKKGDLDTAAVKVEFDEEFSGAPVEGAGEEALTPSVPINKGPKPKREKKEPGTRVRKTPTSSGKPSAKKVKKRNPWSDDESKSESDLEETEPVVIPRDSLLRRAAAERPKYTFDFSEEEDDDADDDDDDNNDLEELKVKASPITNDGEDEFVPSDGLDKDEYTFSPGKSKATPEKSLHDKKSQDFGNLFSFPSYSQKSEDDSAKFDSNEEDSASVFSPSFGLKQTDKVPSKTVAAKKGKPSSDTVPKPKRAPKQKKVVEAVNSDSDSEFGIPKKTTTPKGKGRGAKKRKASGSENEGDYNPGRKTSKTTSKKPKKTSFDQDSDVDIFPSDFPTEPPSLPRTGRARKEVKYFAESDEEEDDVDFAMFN
In words: Human topo IIβ-mediated kDNA decatenation assay. Type of series: biochemical. The procedure: We were also interested in whether compounds can act on both isoforms of the human topo II. Thus, we performed human topo IIβ decatenation assays for compounds 1 and 9. […] (see also Tables S5 and S6 for more details).
as §4

Setting [6] is: 500 μM (compound 1: solubility problems, erratic readings).

This is an account of results in publication PMC7469689, “Substituted 4,5′-Bithiazoles as Catalytic Inhibitors of Human DNA Topoisomerase IIα” (Journal of Chemical Information and Modeling, 2020).

T1 sequence (P11388 whole entry): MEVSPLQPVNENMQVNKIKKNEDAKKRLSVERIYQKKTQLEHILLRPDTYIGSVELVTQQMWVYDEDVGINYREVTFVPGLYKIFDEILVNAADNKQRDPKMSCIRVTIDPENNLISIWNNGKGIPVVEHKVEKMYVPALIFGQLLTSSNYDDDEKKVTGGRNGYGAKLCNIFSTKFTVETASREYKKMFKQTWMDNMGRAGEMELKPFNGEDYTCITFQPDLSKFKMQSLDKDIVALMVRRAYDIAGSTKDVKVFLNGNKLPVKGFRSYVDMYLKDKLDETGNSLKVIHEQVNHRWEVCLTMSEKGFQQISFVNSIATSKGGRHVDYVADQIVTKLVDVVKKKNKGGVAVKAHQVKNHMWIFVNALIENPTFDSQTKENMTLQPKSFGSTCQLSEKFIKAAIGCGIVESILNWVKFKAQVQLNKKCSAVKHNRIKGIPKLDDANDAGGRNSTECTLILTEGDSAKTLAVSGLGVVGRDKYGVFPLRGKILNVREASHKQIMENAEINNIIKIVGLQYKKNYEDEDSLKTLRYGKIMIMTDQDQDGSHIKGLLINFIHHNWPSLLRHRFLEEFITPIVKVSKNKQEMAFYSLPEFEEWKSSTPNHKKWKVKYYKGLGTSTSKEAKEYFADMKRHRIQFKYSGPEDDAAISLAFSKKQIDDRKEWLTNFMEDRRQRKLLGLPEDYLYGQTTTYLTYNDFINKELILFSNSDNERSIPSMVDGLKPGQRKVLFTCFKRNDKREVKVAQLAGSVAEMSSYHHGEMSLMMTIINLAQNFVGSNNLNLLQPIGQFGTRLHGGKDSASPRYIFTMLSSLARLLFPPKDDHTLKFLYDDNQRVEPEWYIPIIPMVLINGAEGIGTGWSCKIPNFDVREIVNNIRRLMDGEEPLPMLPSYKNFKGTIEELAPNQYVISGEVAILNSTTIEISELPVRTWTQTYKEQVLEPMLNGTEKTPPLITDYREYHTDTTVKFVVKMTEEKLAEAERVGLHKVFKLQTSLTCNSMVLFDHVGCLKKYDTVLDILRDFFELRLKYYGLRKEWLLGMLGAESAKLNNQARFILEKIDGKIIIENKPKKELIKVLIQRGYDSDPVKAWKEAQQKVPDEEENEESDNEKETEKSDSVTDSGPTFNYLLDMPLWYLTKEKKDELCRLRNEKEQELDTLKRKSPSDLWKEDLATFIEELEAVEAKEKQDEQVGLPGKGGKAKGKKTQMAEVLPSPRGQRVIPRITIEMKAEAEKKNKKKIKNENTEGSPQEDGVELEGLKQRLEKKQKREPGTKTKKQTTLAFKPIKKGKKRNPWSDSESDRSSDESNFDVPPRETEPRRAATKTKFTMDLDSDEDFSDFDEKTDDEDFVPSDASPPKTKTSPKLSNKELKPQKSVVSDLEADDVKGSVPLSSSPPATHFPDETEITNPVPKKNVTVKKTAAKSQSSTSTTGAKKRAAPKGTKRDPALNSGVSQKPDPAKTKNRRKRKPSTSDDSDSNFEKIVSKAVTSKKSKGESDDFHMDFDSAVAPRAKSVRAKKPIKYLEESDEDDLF

The pKa is the pH at which an ionisable group is half protonated. Regarding `Nc1nccs1` [2-aminothiazole], the pKa in series [1] is given as 5.4.

Usually IC50 stands for the midpoint of a concentration-inhibition curve. The molecule `Cc1cc(O)ccc1Nc1nc(-c2sc(N)nc2C)cs1` [Compound 2] came in with an IC50 at human topo IIα [2] of 35.8 µM.

Regarding `CC(=O)c1ccc(Nc2nc(-c3sc(N)nc3C)cs2)cc1` [Compound 3], the IC50 at human topo IIα [2] stood at 222 µM. The “solubility in the cell growth medium” value in the series “Solubility observations” is reported as “low solubility”.

`Cc1cc(NS(=O)(=O)c2ccc(Nc3nc(-c4sc(N)nc4C)cs3)cc2)no1` [Compound 4]: half-maximal inhibition against human topo IIα [2] (IC50) was put at 30.1 µM.

As to `Cc1nc(N)sc1-c1csc(Nc2ccc(S(N)(=O)=O)cc2)n1` [Compound 5], the IC50 on bacterial DNA gyrase is 8.2 µM; against human topo IIα [2] it was 70.1 µM.

With `Cc1nc(N)sc1-c1csc(Nc2ccc(C(=O)O)c(O)c2)n1` [Compound 6], the IC50 on bacterial DNA gyrase is 67 µM; against human topo IIα [2], 37.7 µM. For the same molecule, the “reduction of cell viability, initial cytotoxicity screening” value (“reduction of cell viability” below) with MCF-7 cells and in the series with HepG2 cells was “no or only minor effects” throughout.

The molecule `CC(=O)Nc1nc(C)c(-c2csc(Nc3cccc(O)c3)n2)s1` [Compound 7] showed an IC50 on human topo IIα [2] of 33.7 µM.

In the case of `CC(=O)Nc1nc(C)c(-c2csc(Nc3ccc(C(=O)O)cc3)n2)s1` [Compound 8], the IC50 at bacterial DNA gyrase is 5.5 µM; at human topo IIα [2], 120 µM. Further, the “reduction of cell viability” value with MCF-7 cells and with HepG2 cells was “no or only minor effects” in each case.

For the molecule `CC(=O)Nc1ccc(Nc2nc(-c3sc(NC(C)=O)nc3C)cs2)cc1` [Compound 9], the “% Linear DNA (first column)” value on human topo IIα [3] (3.9 μM) worked out at 5.49%; at human topo IIα [3] (31.5 μM), 7.77%; at human topo IIα [3] (125 μM) it was 4.84%; on human topo IIα [3] (500 μM), 2.95%. Besides, the “% Linear DNA (second column)” value worked out at 7.03% on human topo IIα [3] (3.9 μM), 6.75% on human topo IIα [3] (31.5 μM), 4.60% at human topo IIα [3] (125 μM) and 2.25% at human topo IIα [3] (500 μM). Besides, the “linear DNA formation in cleavage assay (in words)” value on human topo IIα [3] is “did not reveal a significant amount of linear DNA above the background level”. This molecule also displayed an IC50 at human topo IIα [2] of 60 µM.

A word on the inhibition: it is the share of the control response that was lost under treatment. At human topo IIα [4] (125 μM), `COc1ccc(Nc2nc(-c3sc(NC(C)=O)nc3C)cs2)cc1` [Compound 10] yielded an inhibition at 125 µM of 26%. The molecule also displayed an inhibition at 500 µM against human topo IIα [4] (500 μM) of 64%. On human topo IIα [2], this molecule had an IC50 of 22.7 µM.

Turning to `CC(=O)Nc1nc(C)c(-c2csc(Nc3cccc(C(=O)O)c3)n2)s1` [Compound 11], the “reduction of cell viability” value in the series on MCF-7 cells and with HepG2 cells was “no or only minor effects” in each case. This molecule also had an IC50 at human topo IIα [2] of 134 µM.

Take `CC(=O)Nc1nc(C)c(-c2csc(Nc3ccc(O)cc3)n2)s1` [Compound 12]: the IC50 at bacterial DNA gyrase is 30 µM; on human topo IIα [2], 193 µM.

Regarding `CCC(=O)Nc1nc(C)c(-c2csc(Nc3ccc(C(=O)O)cc3)n2)s1` [Compound 13], the IC50 on bacterial DNA gyrase is 1.1 µM; against human topo IIα [2] it was 123 µM.

The molecule `CC(=O)Nc1nc(C)c(-c2csc(Nc3ccccc3)n2)s1` [Compound 14] displayed an IC50 against human topo IIα [2] of 357 µM.

With `COc1cc([C@@H]2c3cc4c(cc3[C@@H](O[C@@H]3O[C@@H]5CO[C@@H](C)O[C@H]5[C@H](O)[C@H]3O)[C@H]3COC(=O)[C@H]23)OCO4)cc(OC)c1O` [etoposide, reference compound], the “Percentage ATPase activity Run 1” value at human topo IIα [5] (3.9 μM) amounted to 52.71%; on human topo IIα [5] (31.5 μM), 36.43%; at human topo IIα [5] (125 μM), 30.23%; at human topo IIα [5] (setting [6]), 0%. Moreover, the “Percentage ATPase activity Run 2” value at human topo IIα [5] (3.9 μM) came to 51.94%; on human topo IIα [5] (31.5 μM) it was 37.21%; at human topo IIα [5] (125 μM), 37.21%; on human topo IIα [5] (setting [6]), 4.65%. Further, the “% Linear DNA (first column)” value at human topo IIα [3] (3.9 μM) turned out to be 22.76%; on human topo IIα [3] (31.5 μM), 33.00%; on human topo IIα [3] (125 μM) it was 45.35%; on human topo IIα [3] (500 μM), 43.03%. For the same molecule, the “% Linear DNA (second column)” value on human topo IIα [3] (3.9 μM) was 11.88%; on human topo IIα [3] (31.5 μM), 36.26%; on human topo IIα [3] (125 μM), 36.91%; on human topo IIα [3] (500 μM), 48.40%. For the same molecule, at human topo IIα [3], the “linear DNA formation in cleavage assay (in words)” value is “poison activity”. In addition, at human topo IIβ (3.9 μM), the “% Decatenated Average” value turned out to be 100.0%. Moreover, on human topo IIβ (500 μM), the “% Decatenated Assay 1” value was 15.0%.

Turning to `CO[C@@H]1[C@@H](OC(N)=O)[C@@H](O)[C@H](Oc2ccc3c(O)c(NC(=O)c4ccc(O)c(CC=C(C)C)c4)c(=O)oc3c2C)OC1(C)C` [novobiocin, reference compound], the “Rate ATPase activity” value on human topo IIα [5] (10 μM control) came to 0.14 µmol/min.
